This assay concerns the target human GPR40 receptor (Homo sapiens, UniProt O14842). Briefly: Assay I: IP1 accumulation (IPOne HTRF) in 1321N1 cells stably expressing human GPR40. Conditions: 1321N1 cells expressing human GPR40, stimulation 1 hour at 37° C., 10% CO2, final LiCl 50 mM. It counts as cell-based. As for the experimental part: IP1 accumulation measurements using the IPOne assay system—1321N1 cells stably expressing human GPR40 receptor (Euroscreen, Belgium) are seeded 24 h before the assay in black clear-bottom collagen-coated 384-well plates in culture medium containing 10% FCS, 1% Na-Pyruvate and 400 μg/mL G418. IP1 is assayed according to the Manufacturers description (Cisbio Bioassays, France). In brief, the assay is started by substitution of the culture medium by stimulation buffer (Hepes 10 mM, CaCl2 1 mM, MgCl2 0.5 mM, KCl 4.2 mM, NaCl 146 mM and glucose 5.5 mM, pH 7.4) without LiCl. Cells are stimulated for 1 hour at 37° C., 10% CO2 by addition of the compounds that are diluted in stimulation buffer containing LiCl yielding a final LiCl concentration of 50 mM. Assays are stopped by adding HTRF-conjugates (IP1-d2 and Anti-IP1 cryptate Tb) and lysis buffer, provided by the manufacturer. After an incubation time of 1 hour at room temperature plates are measured using an EnVision™, Perkin Elmer. The obtained fluorescence ratios at 665/615 nM are then used to calculate the pEC50 values using GraphPad Prism 5 (Graphpad Software Inc, USA) by interpolation using an IP1 reference curve and subsequent sigmoidal curve fitting allowing for a variable hill slope.

EC50 data for 23 molecules are collected here from patent US8642585B2, “Indanyloxydihydrobenzofuranylacetic acids” (Boehringer Ingelheim International GmbH, priority 2012, dated 2014).

Chain of human GPR40 receptor (O14842 whole entry): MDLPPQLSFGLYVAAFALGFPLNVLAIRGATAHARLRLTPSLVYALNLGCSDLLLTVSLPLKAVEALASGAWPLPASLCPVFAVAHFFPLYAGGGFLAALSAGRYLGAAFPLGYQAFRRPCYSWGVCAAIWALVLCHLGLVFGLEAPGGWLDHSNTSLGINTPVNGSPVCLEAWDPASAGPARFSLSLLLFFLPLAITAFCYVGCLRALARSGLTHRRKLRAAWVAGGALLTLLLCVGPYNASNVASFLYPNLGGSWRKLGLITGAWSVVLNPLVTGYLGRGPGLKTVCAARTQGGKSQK

In turn, `Cc1cc(OCC2CCS(=O)(=O)CC2)cc(C)c1-c1ccc(F)c2c1CC[C@H]2Oc1ccc2c(c1)OC[C@H]2CC(=O)O` [Example 28, 2-((S)-6-((R)-4-(2,6-Dimethyl-4-((1,1-dioxo-tetrahydro-2H-thiopyran-4-yl)methoxy)phenyl)-7-fluoro-2,3-dihydro-1H-inden-1-yloxy)-2,3-dihydrobenzofuran-3-yl)acetic acid] came in with an EC50 of 6 nM. For `CNC(=O)COc1cc(C)c(-c2ccc(F)c3c2CC[C@H]3Oc2ccc3c(c2)OC[C@H]3CC(=O)O)c(C)c1` [Example 12, 2-((S)-6-((R)-4-(2,6-Dimethyl-4-(2-(methylamino)-2-oxoethoxy)phenyl)-7-fluoro-2,3-dihydro-1H-inden-1-yloxy)-2,3-dihydrobenzofuran-3-yl)acetic acid], it took 12 nM to reach a half-maximal effect (EC50).

Take `Cc1cc(OCC(N)=O)cc(C)c1-c1ccc(F)c2c1CC[C@H]2Oc1ccc2c(c1)OC[C@H]2CC(=O)O` [Example 14, 2-((S)-6-((R)-4-(4-(2-Amino-2-oxoethoxy)-2,6-dimethylphenyl)-7-fluoro-2,3-dihydro-1H-inden-1-yloxy)-2,3-dihydrobenzofuran-3-yl)acetic acid]: the response was half-maximal at 14 nM (EC50). `Cc1cc(OCCNC(=O)OC(C)(C)C)cc(C)c1-c1ccc(F)c2c1CC[C@H]2Oc1ccc2c(c1)OC[C@H]2CC(=O)O` [Example 65, 2-((S)-6-((R)-4-(4-(2-(tert-Butoxycarbonylamino)ethoxy)-2,6-dimethylphenyl)-7-fluoro-2,3-dihydro-1H-inden-1-yloxy)-2,3-dihydrobenzofuran-3-yl)acetic acid] returned an EC50 of 34 nM.

As to `Cc1cc(OCC[S+](C)[O-])cc(C)c1-c1ccc(F)c2c1CC[C@H]2Oc1ccc2c(c1)OC[C@H]2CC(=O)O` (stereo partly drawn) [Example 5, 2-((3S)-6-((1R)-4-(2,6-Dimethyl-4-(2-(methylsulfinyl)ethoxy)phenyl)-7-fluoro-2,3-dihydro-1H-inden-1-yloxy)-2,3-dihydrobenzofuran-3-yl)acetic acid], the EC50 was found to be 19 nM. To `Cc1cc(OCC(C)(C)O)cc(C)c1-c1ccc(F)c2c1CC[C@H]2Oc1ccc2c(c1)OC[C@H]2CC(=O)O` [Example 10, 2-((S)-6-((R)-7-Fluoro-4-(4-(2-hydroxy-2-methylpropoxy)-2,6-dimethylphenyl)-2,3-dihydro-1H-inden-1-yloxy)-2,3-dihydrobenzofuran-3-yl)acetic acid] belongs 9 nM; to `Cc1cc(OCC(C)(C)CO)cc(C)c1-c1ccc(F)c2c1CC[C@H]2Oc1ccc2c(c1)OC[C@H]2CC(=O)O` [Example 15, 2-((S)-6-((R)-7-Fluoro-4-(4-(3-hydroxy-2,2-dimethylpropoxy)-2,6-dimethylphenyl)-2,3-dihydro-1H-inden-1-yloxy)-2,3-dihydrobenzofuran-3-yl)acetic acid], 5 nM; to `Cc1c(OCCCS(C)(=O)=O)cccc1-c1ccc(F)c2c1CC[C@H]2Oc1ccc2c(c1)OC[C@H]2CC(=O)O` [Example 58, 2-((3S)-6-((1R)-7-Fluoro-4-(2-methyl-3-(3-(methylsulfonyl)propoxy)phenyl)-2,3-dihydro-1H-inden-1-yloxy)-2,3-dihydrobenzofuran-3-yl)acetic acid], 58 nM. As for `Cc1cc(OC(C)(C)C#N)cc(C)c1-c1ccc(F)c2c1CC[C@H]2Oc1ccc2c(c1)OC[C@H]2CC(=O)O` [Example 21, 2-((S)-6-((R)-4-(4-(2-Cyanopropan-2-yloxy)-2,6-dimethylphenyl)-7-fluoro-2,3-dihydro-1H-inden-1-yloxy)-2,3-dihydrobenzofuran-3-yl)acetic acid], a half-maximal response (EC50) required 9 nM. Compared with the last molecule, the EC50 is about 6.4-fold lower. In turn, `Cc1cc(OCC(C)(C)CN(C)C)cc(C)c1-c1ccc(F)c2c1CC[C@H]2Oc1ccc2c(c1)OC[C@H]2CC(=O)O` [Example 22, 2-((S)-6-((R)-4-(4-(3-(Dimethylamino)-2,2-dimethylpropoxy)-2,6-dimethylphenyl)-7-fluoro-2,3-dihydro-1H-inden-1-yloxy)-2,3-dihydrobenzofuran-3-yl)acetic acid] gave an EC50 of 17 nM. Compared with the last molecule, the EC50 is about 1.9-fold higher. On to `Cc1cc(O[C@H]2C[C@@H](N(C)S(C)(=O)=O)C2)cc(C)c1-c1ccc(F)c2c1CC[C@H]2Oc1ccc2c(c1)OC[C@H]2CC(=O)O` [Example 33, 2-((S)-6-((R)-4-(2,6-Dimethyl-4-((1s,3S)-3-(N-methylmethylsulfonamido)cyclobutoxy)phenyl)-7-fluoro-2,3-dihydro-1H-inden-1-yloxy)-2,3-dihydrobenzofuran-3-yl)acetic acid], for which the EC50 stood at 12 nM.

As for `Cc1cc(-c2cnn(C)c2)cc(C)c1-c1ccc(F)c2c1CC[C@H]2Oc1ccc2c(c1)OC[C@H]2CC(=O)O` [Example 19, 2-((S)-6-((R)-4-(2,6-Dimethyl-4-(1-methyl-1H-pyrazol-4-yl)phenyl)-7-fluoro-2,3-dihydro-1H-inden-1-yloxy)-2,3-dihydrobenzofuran-3-yl)acetic acid], the EC50 amounted to 3 nM. Take `Cc1cc(OCC(=O)N(C)C)cc(C)c1-c1ccc(F)c2c1CC[C@H]2Oc1ccc2c(c1)OC[C@H]2CC(=O)O` [Example 13, 2-((S)-6-((R)-4-(4-(2-(Dimethylamino)-2-oxoethoxy)-2,6-dimethylphenyl)-7-fluoro-2,3-dihydro-1H-inden-1-yloxy)-2,3-dihydrobenzofuran-3-yl)acetic acid]: it took 63 nM to reach a half-maximal effect (EC50). `Cc1cc(OCC2CCCO2)cc(C)c1-c1ccc(F)c2c1CC[C@H]2Oc1ccc2c(c1)OC[C@H]2CC(=O)O` (stereo partly drawn) [Example 3, 2-((3S)-6-((1R)-4-(2,6-dimethyl-4-((tetrahydrofuran-2-yl)methoxy)phenyl)-7-fluoro-2,3-dihydro-1H-inden-1-yloxy)-2,3-dihydrobenzofuran-3-yl)acetic acid]: the EC50 was 6 nM. Against the preceding molecule, the EC50 is about 10-fold lower. The value for `Cc1cc(OCC2(C)COC2)cc(C)c1-c1ccc(F)c2c1CC[C@H]2Oc1ccc2c(c1)OC[C@H]2CC(=O)O` [Example 1, 2-((S)-6-((R)-4-(2,6-dimethyl-4-((3-methyloxetan-3-yl)methoxy)phenyl)-7-fluoro-2,3-dihydro-1H-inden-1-yloxy)-2,3-dihydrobenzofuran-3-yl)acetic acid] was 4 nM; that for `Cc1cc(OCCC(C)(C)O)cc(C)c1-c1ccc(F)c2c1CC[C@H]2Oc1ccc2c(c1)OC[C@H]2CC(=O)O` [Example 4, 2-((S)-6-((R)-7-Fluoro-4-(4-(3-hydroxy-3-methylbutoxy)-2,6-dimethylphenyl)-2,3-dihydro-1H-inden-1-yloxy)-2,3-dihydrobenzofuran-3-yl)acetic acid] was 5 nM. To `Cc1cc(OCC2CN(S(C)(=O)=O)C2)cc(C)c1-c1ccc(F)c2c1CC[C@H]2Oc1ccc2c(c1)OC[C@H]2CC(=O)O` [Example 29, 2-((S)-6-((R)-4-(2,6-Dimethyl-4-((1-(methylsulfonyl)azetidin-3-yl)methoxy)phenyl)-7-fluoro-2,3-dihydro-1H-inden-1-yloxy)-2,3-dihydrobenzofuran-3-yl)acetic acid] belongs 11 nM; to `Cc1cc(O[C@H]2CCOC2)cc(C)c1-c1ccc(F)c2c1CC[C@H]2Oc1ccc2c(c1)OC[C@H]2CC(=O)O` [Example 8, 2-((S)-6-((R)-4-(2,6-Dimethyl-4-((S)-tetrahydrofuran-3-yloxy)phenyl)-7-fluoro-2,3-dihydro-1H-inden-1-yloxy)-2,3-dihydrobenzofuran-3-yl)acetic acid], 4 nM; to `Cc1cc(O[C@@H]2CCOC2)cc(C)c1-c1ccc(F)c2c1CC[C@H]2Oc1ccc2c(c1)OC[C@H]2CC(=O)O` [Example 9, 2-((S)-6-((R)-4-(2,6-Dimethyl-4-((R)-tetrahydrofuran-3-yloxy)phenyl)-7-fluoro-2,3-dihydro-1H-inden-1-yloxy)-2,3-dihydrobenzofuran-3-yl)acetic acid], 9 nM. The value for `Cc1cc(OCC2(C)CN(S(C)(=O)=O)C2)cc(C)c1-c1ccc(F)c2c1CC[C@H]2Oc1ccc2c(c1)OC[C@H]2CC(=O)O` [Example 39, ((S)-6-{(R)-7-Fluoro-4-[4-(1-methanesulfonyl-3-methyl-azetidin-3-ylmethoxy)-2,6-dimethyl-phenyl]-indan-1-yloxy}-2,3-dihydro-benzofuran-3-yl)-acetic acid] was 8 nM; that for `Cc1cc(C2=CCN(S(C)(=O)=O)CC2)cc(C)c1-c1ccc(F)c2c1CC[C@H]2Oc1ccc2c(c1)OC[C@H]2CC(=O)O` [Example 25, 2-((S)-6-((R)-4-(2,6-dimethyl-4-(1-(methylsulfonyl)-1,2,3,6-tetrahydropyridin-4-yl)phenyl)-7-fluoro-2,3-dihydro-1H-inden-1-yloxy)-2,3-dihydrobenzofuran-3-yl)acetic acid] was 35 nM; that for `Cc1cc(OCc2ccnn2C)cc(C)c1-c1ccc(F)c2c1CC[C@H]2Oc1ccc2c(c1)OC[C@H]2CC(=O)O` [Example 151, 2-((S)-6-((R)-4-(2,6-dimethyl-4-((1-methyl-1H-pyrazol-5-yl)methoxy)phenyl)-7-fluoro-2,3-dihydro-1H-inden-1-yloxy)-2,3-dihydrobenzofuran-3-yl)acetic acid] was 3 nM. `Cc1cc(OC2CCC(O)C2)cc(C)c1-c1ccc(F)c2c1CC[C@H]2Oc1ccc2c(c1)OC[C@H]2CC(=O)O` (stereo partly drawn) [Example 11, 2-((3S)-6-((1R)-7-Fluoro-4-(4-(3-hydroxycyclopentyloxy)-2,6-dimethylphenyl)-2,3-dihydro-1H-inden-1-yloxy)-2,3-dihydrobenzofuran-3-yl)acetic acid] came in with an EC50 of 5 nM.

The term EC50 denotes the concentration needed to bring the measured effect to its halfway point. Lower therefore signals an effect from little substance.
